Assay [1] relates to CA3 pyramidal cells. Briefly: Whole-cell voltage clamp recordings of spontaneous EPSCs in CA3 slices. Format: cell-based, mice. The note with it: NBQX 20 μM added to bath. The method, then:
(§1) This chronic CORT elevation dysregulates the hypothalamic-pituitary-adrenal axis (HPA) in a manner similar to that observed in clinical depression. The dose and duration of CORT treatment was selected based on previous studies. CORT (35 μg/ml, equivalent to about 5 mg/kg/day) dissolved in 0.45% hydroxypropyl-o-cyclodextrin (0-CD) or vehicle (VEH) (0.45% j-CD) was available ad libitum in the drinking water in opaque bottles to protect it from light. VEH- and CORT-treated water was changed every 3 days to prevent possible degradation. Contextual Fear Conditioning (CFC): A 3-shock CFC procedure was administered as previously published. Briefly, mice were placed into context A and administered 3 2-s shocks (0.75 mA) at 180 s, 240 s or 300 s following placement into context A. Mice were removed from the context 15 s following the termination of shock (at 317 s). For context retrieval, mice were placed back into context A for 300 s. Electrophysiology: Electrophysiology was conducted as previously described. Statistical Analysis: Results from data analyses are expressed as means±SEM. Alpha was set to 0.05 for all analyses. Data were analyzed using GraphPad Prism v7.0 or v8.0. For all experiments, unless otherwise noted, one- or two-way ANOVAs with repeated-measures were applied to the data as appropriate. Significant main effects and/or interactions were followed by Fisher's PLSD post hoc analysis or unpaired t-tests. Drugs: All drugs were prepared in physiological saline and all injections were administered intraperitoneally (i.p.) in volumes of 0.1 cc per […] body weight unless otherwise noted. Fluoxetine hydrochloride (Flx): Flx (BioTrend Chemicals AG, BG197, Zurich, Germany) was administered in the drinking water (18 mg/kg/day) for 3 weeks before the start of CORT. […] (R,S)-ketamine (K): (R,S)-ketamine (Ketaset III, Ketamine HCl injection, Fort Dodge Animal Health, Fort Dodge, Iowa) was administered in a single dose at 30 mg/kg of body weight 1 week before the start of CFC. […] PF-04995274: PF-04995274 (Sigma, Catalog No. 1331782-27-4, St. Louis, Mo.) was administered a single dose at 3 or 10 mg/kg of body weight 1 week before the start of CFC. PF-04995274 was dissolved in saline using an ultrasonic homogenizer (BioLogics, Model 3000, Manassas, Va.). Osmotic minipump implantation: ALZET osmotic minipumps (Model 2004, […], 28 days) were implanted subcutaneously under isoflurane anesthesia as previously described [S2]. Osmotic minipumps were rotated under the skin two to three times per week. Behavioral Assays: All experiments were approved by the Institutional Animal Care and Use Committee (IACUC) at the New York Psychiatric Institute (NYSPI). Elevated Plus Maze (EPM): Testing was performed as previously described [S3]. Briefly, the maze is a plus-cross-shaped apparatus consisting of four arms, two open and two enclosed by walls, linked by a central platform at a height of 50 cm from the floor. Mice were individually placed in the center of the maze facing an open arm and were allowed to explore the maze for 5 min. The time spent in and the number of entries into the open arms was used as an anxiety index. Videos were scored using ANY-maze behavior tracking software (Stoelting, Wood Dale, Ill.). Novelty-Suppressed Feeding: The NSF is a conflict test that elicits competing motivations: the drive to eat and the fear of venturing into the center of a brightly lit arena. The latency to feed is used as an index of anxiety-like behavior, because classical anxiolytic drugs decrease this measure. The NSF test was carried out during an 8 min period as previously described [S3]. Briefly, the testing apparatus consisted of a plastic box (50×50×20 cm), the floor of which was covered with approximately 2 cm of bedding. For 129S6/SvEv experiments, mice were food restricted for 12 h. For the C57BL/6N experiments, mice were food restricted for 24 h. […]

Assay [2] relates to 129S6/SvEv mice. The experiment in a line: 3-shock contextual fear conditioning (CFC). Format: in vivo. As to the method:
as §1

Assay [3] deals with 129S6/SvEv mice. Briefly: Forced swim test (FST) after CFC. Format: in vivo. The method, then:
as §1

[4] abbreviates: FIG. 4 cohort, Male, FIG. 4C, RMANOVA, Fisher's LSD.
Where [5] appears, read: FIG. 4 cohort, Male, FIG. 4D, ANOVA, Fisher's LSD.
The mark [6] stands for this setting: FIG. 4 cohort, Male, FIG. 4F, RMANOVA, Fisher's LSD.
Setting [7] is: FIG. 4 cohort, Male, FIG. 4G, ANOVA, Fisher's LSD.

Molecules are shown by their SMILES.

In the case of `NS(=O)(=O)c1cccc2c1c([N+](=O)[O-])cc1nc(O)c(O)nc12` [NBQX, 2,3-dihydroxy-6-nitro-7-sulfamoyl-benzo[f]quinoxaline], in assay [1], the “large bursts of EPSCs in saline-treated mice” value is “completely blocked”.

As to `OC1(CN2CCC(COc3noc4cccc(OC5CCOC5)c34)CC2)CCOCC1` (stereo not shown) [PF-04995274], in assay [2] (setting [4]), the “p, CFC Re-exposure Freezing (%), PF04995274 (3 mg/kg) vs. PF04995274 (10 mg/kg)” value worked out at 0.0619; the “p, CFC Re-exposure Freezing (%), Saline vs. PF04995274 (3 mg/kg)” value amounted to 0.6871; the “p, CFC Re-exposure Freezing (%), Saline vs. PF04995274 (10 mg/kg)” value worked out at 0.0255. In addition, in assay [2] (setting [5]), the “p, CFC Re-exposure, PF04995274 (3 mg/kg) vs. PF04995274 (10 mg/kg)” value amounted to 0.0619; the “p, CFC Re-exposure, Saline vs. PF04995274 (3 mg/kg)” value was 0.6871; the “p, CFC Re-exposure, Saline vs. PF04995274 (10 mg/kg)” value stood at 0.0255. Further, the “freezing during CFC training” value in assay [2] (male 129S6/SvEv, (R,S)-ketamine 30, prucalopride 3 or 10, PF-04995274 3 or 10 mg/kg, 1 week before CFC, vs saline) was “comparable levels of freezing”. The “freezing at re-exposure to the training context (learned fear) vs saline” value in assay [2] (male 129S6/SvEv, single i.p. injection 1 week before CFC, re-exposure 5 days later, 10 mg/kg) was “attenuated learned fear”. Further, in assay [3] (setting [6]), the “p, FST Day 2 Immobility Time (sec), PF04995274 (3 mg/kg) vs. PF04995274 (10 mg/kg)” value worked out at 0.0941; the “p, FST Day 2 Immobility Time (sec), Saline vs. PF04995274 (3 mg/kg)” value is 0.1259; the “p, FST Day 2 Immobility Time (sec), Saline vs. PF04995274 (10 mg/kg)” value turned out to be 0.0023. In assay [3] (setting [7]), the “p, FST Day 2 Immobility Time (min 3-6) (sec), Saline vs. PF04995274 (3 mg/kg)” value is 0.1050 and the “p, FST Day 2 Immobility Time (min 3-6) (sec), Saline vs. PF04995274 (10 mg/kg)” value turned out to be 0.0027. For the same compound, the “immobility, FST day 1” value in assay [3] (male 129S6/SvEv, (R,S)-ketamine 30, prucalopride 3 or 10, PF-04995274 3 or 10 mg/kg) was “comparable levels of immobility”. In addition, the “immobility time, FST day 2 vs saline” value in assay [3] (male 129S6/SvEv, single injection 1 week before CFC, 10 mg/kg) was “decreased immobility time”.
